According to US20080021002A1, “VITAMIN D COMPOUNDS USED TO STABILIZE KIDNEY TRANSPLANTS” (priority 2000, published 2008):

Key:
Assay type in all cases: in vivo, rat
Smad 6 protein = assay: Western blot of renal graft lysates, Smad 6 protein; details: allograft recipients vs allogeneic untreated control group
From the text: (§1) Renal lysates were subjected to SDS-PAGE and transferred to nitrocellulose membranes. The membranes were probed with specific anti-Smad antibodies and appropriated HRP-conjugated secondary antibodies. Signal was detected with chemilumensnce. Following exposure, x-ray films were scanned and the amount of expression compared to that of tubulin as an internal control using Scion Image software. FIG. 4 (A) describes R-Smad expression. FIG. 4 (B) described I-Smad expression.
(§2) Western Blot Analysis: A portion of the snap frozen graft containing both cortex and medulla was ground with a mortar and pestle. For each 100 mg of tissue, the sample was resuspened in 400 ul of lysis buffer (10 mM Tris base, 150 mM NaCl, pH 8.0) containing protease inhibitors (P2714 1:1000. Sigma Chemical Co., St. Louis, Mo.) and homogenized (PowerGen 125, 1 minute). Triton X100 was then added to 1% and the sample place on ice, for 30 minutes. The solubilized sample was then spun at 4° C. for 15 minutes at 15,000×G. The supernatant was collected and stored at −80° C. Sample protein concentrations were determined using the Micro BCA assay (Pierce Chemical Co., Rockford, Ill.) according to manufacturer=s instructions, except that the assay was performed in half area plates combining 35 μl sample with 70 µl of reagent. […]

Smad 2 protein = assay: Western blot of renal graft lysates, Smad 2 protein; details: vs allogeneic untreated controls
From the text: as §1, §2

MMP 2 mRNA = assay: Semi-quantitative RT-PCR of renal grafts, MMP 2 mRNA
Description: FIG. 5 is a set of graphs showing that 1,25-(OH)2D3 Treatment Alters MMP and TIMP Expression . […] S26 was used as the housekeeping gene. […] Fold changes are expressed relative to the allogeneic untreated control.
(§3) Semi-quantitative Reverse transcription polymerace chain reaction (RT-PCR): Following graft harvest a […] containing both cortex and medulla was snap frozen in liquid nitrogen. Semi-quantitative RT-PCR was performed as described. Little et al. Transplant Int. 12:393-401, 1999. Briefly, samples were homogenized then total RNA extracted with RNAzol B (Tel Test, Inc., Friendswood, Tex.) and reversed transcribed to cDNA according to manufacturer=s instructions (Superscript, Gibco BRL). PCR was performed over the linear range of amplification for both the gene of interest, e.g. TGFβ-1, and the ribosomal protein S26 as a control housekeeping gene. PCR conditions were chosen such that both products were amplified with similar efficiency. The following cycle parameters were employed: denaturing, 94° C. for 60 seconds; annealing, 61° C. for 60 seconds; and extension, 72° C. for 60 seconds. The amount of product was quantified using a phosphoimager (Storm 80) following gel electrophoresis and Vista green detection.

Smad 3 protein = assay: Western blot of renal graft lysates, Smad 3 protein; details: allogeneic recipients regardless of treatment, vs syngeneic controls (data not shown)
From the text: as §1, §2

Smad 7 mRNA = assay: Semi-quantitative RT-PCR of renal grafts, Smad 7 mRNA; details: vs controls
Description: as §3

bioactive TGFβ-1 = assay: Immunohistochemistry of renal grafts for bioactive TGFβ-1
Description: FIGS. 6 (B) and (C) show immunohistochemistry for bioactive TGFβ-1 in two 1,25-(OH)2D3 treated grafts (1000 ng/rat/day). […] Magnification 200×.
Immunhistochemistry: Formalin fixed, paraffin embedded rat kidneys were sectioned to 4 microns. Sections were rewarmed on day of staining at 60° for 10 minutes, then deparaffinized in xylene for 30 minutes followed by rehydration. Sections were washed twice in distilled water and antigen retrieval performed. Briefly, section were soaked in 100 mM citrate buffer, pH=6.0 for 10 minutes at 90° C. and then heated to 115° C. or 20 minutes Sections were allowed to cool and then washed in PBS and blocked for 10 minutes with BIOCARE SUPER SNIPER9 (BS996L) followed by diluted primary TGFβ-1 antibody (1:150 (Promega Corp., Madison, Wis.; G1221) at 4° C. overnight. Slides were washed (3×5 minutes, PBS) and secondary antibody applied (1 hour at RT, MACHII BIOCARE goat anti-rabbit with polymer spacer; RHRP52OH, Walnut Creek, Calif.).
Slides were developed with Pierce=s Stable Peroxide buffer (cat #1855910) and Pierce=s Stable Metal enhanced DAB solution (cat #1856090).

Smad 2 mRNA = assay: Semi-quantitative RT-PCR of renal grafts, Smad 2 mRNA; details: vs controls
Description: as §3

Smad 3 mRNA = assay: Semi-quantitative RT-PCR of renal grafts, Smad 3 mRNA; details: vs controls
Description: as §3

Smad 7 protein = assay: Western blot of renal graft lysates, Smad 7 protein; details: allogeneic grafts vs untreated allogeneic grafts (FIG. 4B)
From the text: as §1, §2

C=C1/C(=C\C=C2/CCC[C@]3(C)[C@@H]([C@H](C)CCCC(C)(C)O)CC[C@@H]23)C[C@@H](O)C[C@@H]1O [calcitriol, 1,25-dihydroxyvitamin D3]
Smad 6 protein expression (Smad 6 protein): decreased | Decrease in Smad 2 protein levels (Smad 2 protein; 500 ng/rat/day (data not shown)): 208 fold | Decrease in Smad 2 protein levels (Smad 2 protein; 1000 ng/rat/day, p=0.04): 516 fold | Increase in MMP 2 mRNA levels (MMP 2 mRNA; allogeneic grafts (FIG. 5A)): 5.6 fold | Increase in MMP 2 mRNA levels (MMP 2 mRNA; syngeneic grafts (FIG. 5A)): 4.0 fold | Smad 3 protein levels (Smad 3 protein): similar | Smad 7 mRNA levels (Smad 7 mRNA): no significant change | Glomerular staining for bioactive TGFβ-1 (bioactive TGFβ-1; 1000 ng/rat/day (FIG. 6 legend)): significantly decreased | Bioactive TGFβ-1 staining in tubular areas (bioactive TGFβ-1; allogeneic grafts (FIG. 6)): extensive staining | Bioactive TGFβ-1 expression in glomeruli (bioactive TGFβ-1; treated grafts in contrast to untreated control grafts (FIG. 6)): little bioactive TFGβ-1 expression | Smad 2 mRNA levels (Smad 2 mRNA): no significant change | Smad 3 mRNA levels (Smad 3 mRNA): no significant change | Increase in Smad 7 protein levels (Smad 7 protein): 4,3 fold
